The target of the experiment is T1, TrkA kinase (Homo sapiens, UniProt P04629).
T1 construct: purchased Upstate, USA
Briefly: In vitro TrkA inhibitory activity using TR-FRET assay. Conditions: 5 ng TrkA, 500 μM ATP, values given as bins. Type of experiment: biochemical. As to the method:
Compounds were screened in the TR-FRET assay with TrkA kinase. 5 ng of TrkA [Upstate, USA] kinase was used for assay. The compound was incubated with the kinase for 30 minutes at 20-35° C. After the incubation, substrate mix [40 nM Ultra light poly GT (Perkin Elmer, USA) and 500 μM ATP] was added. The above reaction was stopped by the addition of 40 mM EDTA after 30 minutes. The Eu-labelled antiphospho-tyrosine antibody [Perkin Elmer, USA] was added at 0.5 nM and the fluorescence emission at 615 nm/665 nm [excitation at 340 nm] was measured. The compounds were initially screened at 100 nM, 1 μM and 10 μM concentrations. The potent compounds with >25% inhibition at 1 μM of TrkA were taken for the full dose response studies. The final DMSO concentration in the assay was […]. For IC50 determination, ⅓^rd serial dilution was made from the 20 mM DMSO stock solution. 2 μl of these were transferred to the test wells containing 20 μl reaction mixture [Total reaction volume 22 μl]. The fluorescence was measured in Perkin Elmer Wallac 1420 Multilabel Counter Victor 3. The IC50 was determined by fitting the dose response data to a sigmoidal curve fitting equation using GraphPad Prism software version 5.

Setting [1] is: read-out: TrkA inhibition in-vitro IC50.

Like-named read-outs stand apart in the source and are kept apart here.

For 23 compounds, IC50 results are on record in US9394305B2, “Substituted imidazo[1,2-a]pyridine compounds as tropomyosin receptor kinase a (TrkA) inhibitors” (Dr. Reddy's Laboratories Ltd., priority 2014, dated 2016).

For orientation: IC50 means the concentration at which inhibition is half-maximal.

T1 sequence (P04629 33-796): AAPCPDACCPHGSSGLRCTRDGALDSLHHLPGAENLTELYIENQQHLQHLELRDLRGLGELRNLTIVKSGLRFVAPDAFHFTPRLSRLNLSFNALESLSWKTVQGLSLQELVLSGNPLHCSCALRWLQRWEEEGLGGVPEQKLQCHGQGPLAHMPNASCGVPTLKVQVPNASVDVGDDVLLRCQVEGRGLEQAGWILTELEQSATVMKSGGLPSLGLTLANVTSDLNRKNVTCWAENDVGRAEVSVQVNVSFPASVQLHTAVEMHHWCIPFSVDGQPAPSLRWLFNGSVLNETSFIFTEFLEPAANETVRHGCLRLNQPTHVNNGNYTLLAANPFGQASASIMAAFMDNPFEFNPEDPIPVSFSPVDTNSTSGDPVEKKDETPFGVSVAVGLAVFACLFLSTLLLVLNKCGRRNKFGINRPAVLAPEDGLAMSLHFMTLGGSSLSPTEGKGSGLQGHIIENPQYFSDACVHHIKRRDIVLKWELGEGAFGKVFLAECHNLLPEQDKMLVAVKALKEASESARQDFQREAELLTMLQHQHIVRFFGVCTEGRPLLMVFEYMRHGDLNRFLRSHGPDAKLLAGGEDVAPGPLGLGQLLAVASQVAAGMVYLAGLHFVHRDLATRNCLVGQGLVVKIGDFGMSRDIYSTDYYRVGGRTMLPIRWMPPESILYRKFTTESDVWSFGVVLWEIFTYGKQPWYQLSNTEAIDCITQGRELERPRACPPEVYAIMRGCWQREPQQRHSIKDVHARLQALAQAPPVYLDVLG

As to `Cc1nnc(N(C)S(=O)(=O)NC(=O)c2cnc3ccc(N4CCC[C@@H]4c4cc(F)ccc4OC4CCOCC4)cn23)s1` [Example 85, (R)-6-(2-(5-fluoro-2-((tetrahydro-2H-pyran-4-yl)oxy)phenyl)pyrrolidin-1-yl)-N—(N-methyl-N-(5-methyl-1,3,4-thiadiazol-2-yl)sulfamoyl)imidazo[1,2-a]pyridine-3-carboxamide], the IC50 under setting [1] was ≤ 50 nM.
Still for that read-out and setting: to `O=C(NC(CO)CO)c1cnc2ccc(N3CCCC3c3cc(F)ccc3F)cn12` (centres unmarked) [Example 5, 6-(2-(2,5-difluorophenyl)pyrrolidin-1-yl)-N-(1,3-dihydroxypropan-2-yl)imidazo[1,2-a]pyridine-3-carboxamide] belongs ≤ 50 nM.
Same read-out and setting: as for `CN(c1ccn(C)n1)S(=O)(=O)NC(=O)c1cnc2ccc(N3C[C@@H](F)C[C@@H]3c3cc(F)ccc3O[C@@H]3CCOC3)cn12` [Example 92, 6-((2R,4S)-4-fluoro-2-(5-fluoro-2-(((R)-tetrahydrofuran-3-yl)oxy)phenyl)pyrrolidin-1-yl)-N—(N-methyl-N-(1-methyl-1H-pyrazol-3-yl)sulfamoyl)imidazo[1,2-a]pyridine-3-carboxamide], the figure is ≤ 50 nM; as for `Cc1nnc(N(C)S(=O)(=O)NC(=O)c2cnc3ccc(N4C[C@@H](F)C[C@@H]4c4cc(F)ccc4O[C@@H]4CCOC4)cn23)s1` [Example 93, 6-((2R,4S)-4-fluoro-2-(5-fluoro-2-(((R)-tetrahydrofuran-3-yl)oxy)phenyl)pyrrolidin-1-yl)-N—(N-methyl-N-(5-methyl-1,3,4-thiadiazol-2-yl)sulfamoyl)imidazo[1,2-a]pyridine-3-carboxamide], ≤ 50 nM; as for `CCN(C)S(=O)(=O)NC(=O)c1cnc2ccc(N3CCCC3c3cc(F)cc4c3OCCO4)cn12` (single isomer, unassigned) [Example 72, N-(N-ethyl-N-methylsulfamoyl)-6-(2-(7-fluoro-2,3-dihydrobenzo [b][1,4]dioxin-5-yl)pyrrolidin-1-yl)imidazo[1,2-a]pyridine-3-carboxamide], 100 to 500 nM.
The same measure, in the same setting: to `O=C(c1cnc2ccc(N3CCCC3c3cc(F)ccc3F)cn12)N1CC(O)C1` (single isomer, unassigned) [Example 73, (6-(2-(2,5-difluorophenyl)pyrrolidin-1-yl)imidazo[1,2-a]pyridine-3 yl)(3-hydroxyazetidin-1-yl)methanone] belongs ≤ 50 nM.
Take `CN(c1nccs1)S(=O)(=O)NC(=O)c1cnc2ccc(N3C[C@@H](F)C[C@@H]3c3cc(F)ccc3OC3CCOCC3)cn12` [Example 100, 6-((2R,4S)-4-fluoro-2-(5-fluoro-2-((tetrahydro-2H-pyran-4-yl)oxy)phenyl)pyrrolidin-1-yl)-N—(N-methyl-N-(thiazol-2-yl)sulfamoyl)imidazo[1,2-a]pyridine-3-carboxamide]: the half-maximal inhibitory concentration (IC50) under setting [1] was ≤ 50 nM.
The same measure, in the same setting: as for `Cc1ccc(N(C)S(=O)(=O)NC(=O)c2cnc3ccc(N4CCC[C@@H]4c4cc(F)ccc4OC4CCOCC4)cn23)nn1` [Example 87, (R)-6-(2-(5-fluoro-2-((tetrahydro-2H-pyran-4-yl)oxy)phenyl)pyrrolidin-1-yl)-N—(N-methyl-N-(6-methylpyridazin-3-yl)sulfamoyl)imidazo[1,2-a]pyridine-3-carboxamide], the figure is ≤ 50 nM; as for `CN(c1cnccn1)S(=O)(=O)NC(=O)c1cnc2ccc(N3CCC[C@@H]3c3cc(F)ccc3F)cn12` [Example 45, (R)-6-(2-(2,5-difluorophenyl)pyrrolidin-1-yl)-N-(N-methyl-N-(pyrazin-2-yl)sulfamoyl)imidazo[1,2-a]pyridine-3-carboxamide], ≤ 50 nM; as for `CN(CCF)S(=O)(=O)NC(=O)c1cnc2ccc(N3C[C@@H](F)C[C@@H]3c3cc(F)ccc3O[C@@H]3CCOC3)cn12` [Example 62, 6-((2R,4S)-4-fluoro-2-(5-fluoro-2-(((R)-tetrahydrofuran-3-yl)oxy)phenyl)pyrrolidin-1-yl)-N-(N-(2-fluoroethyl)-N-methylsulfamoyl)imidazo[1,2-a]pyridine-3-carboxamide], ≤ 50 nM.
For the compound `O=C(NS(=O)(=O)c1ccc(N2CC[C@H](O)C2)cc1)c1cnc2ccc(N3CCCCC3c3cc(F)ccc3F)cn12` (stereo partly drawn) [Example 49, 6-(2-(2,5-difluorophenyl)piperidin-1-yl)-N-((4-((S)-3-hydroxypyrrolidin-1-yl)phenyl)sulfonyl)imidazo[1,2-a]pyridine-3-carboxamide], the 50% inhibitory concentration (IC50) (read-out: TrkA inhibitory activity in-vitro IC50) is 1000 to 10000 nM.
Consider `C[C@@H](CO)NC(=O)c1cnc2ccc(N3CCC[C@@H]3c3cc(F)ccc3F)cn12` [Example 28, 6-((R)-2-(2,5-difluorophenyl)pyrrolidin-1-yl)-N—((S)-1-hydroxypropan-2-yl)imidazo[1,2-a]pyridine-3-carboxamide], for which the half-maximal inhibitory concentration (IC50) under setting [1] fell in the range of 100 to 500 nM.
For `CN(CCF)S(=O)(=O)NC(=O)c1cnc2ccc(N3CCCC3c3cc(F)cc4c3OCCO4)cn12` (single isomer, unassigned) [Example 71, 6-(2-(7-fluoro-2,3-dihydrobenzo[b][1,4]dioxin-5-yl)pyrrolidin-1-yl)-N-(N-(2-fluoroethyl)-N-methylsulfamoyl)imidazo[1,2-a]pyridine-3-carboxamide], the IC50 under setting [1] is 100 to 500 nM.
Still for that read-out and setting: to `CN(C1CC1)S(=O)(=O)NC(=O)c1cnc2ccc(N3C[C@@H](F)C[C@@H]3c3cc(F)ccc3OC3CCOCC3)cn12` [Example 108, N—(N-cyclopropyl-N-methylsulfamoyl)-6-((2R,4S)-4-fluoro-2-(5-fluoro-2-((tetrahydro-2H-pyran-4-yl)oxy)phenyl)pyrrolidin-1-yl)imidazo[1,2-a]pyridine-3-carboxamide] belongs ≤ 50 nM.
The same measure, in the same setting: to `CCN(CC)S(=O)(=O)NC(=O)c1cnc2ccc(N3C[C@@H](F)C[C@@H]3c3cc(F)ccc3OC3CCOCC3)cn12` [Example 95, N—(N,N-diethylsulfamoyl)-6-((2R,4S)-4-fluoro-2-(5-fluoro-2-((tetrahydro-2H-pyran-4-yl)oxy)phenyl)pyrrolidin-1-yl)imidazo[1,2-a]pyridine-3-carboxamide] belongs ≤ 50 nM.
Same read-out and setting: as for `CCN(CCF)S(=O)(=O)NC(=O)c1cnc2ccc(N3C[C@@H](F)C[C@@H]3c3cc(F)ccc3O[C@@H]3CCOC3)cn12` [Example 75, N—(N-ethyl-N-(2-fluoroethyl)sulfamoyl)-6-((2R,4S)-4-fluoro-2-(5-fluoro-2-(((R)-tetrahydrofuran-3-yl)oxy)phenyl)pyrrolidin-1-yl)imidazo[1,2-a]pyridine-3-carboxamide], the figure is ≤ 50 nM; as for `O=C(c1cnc2ccc(N3CCCC3c3cc(F)ccc3F)cn12)N1CC(O)C1` (centres unmarked) [Example 4, (6-(2-(2,5-difluorophenyl)pyrrolidin-1-yl)imidazo[1,2-a]pyridin-3-yl)(3-hydroxyazetidin-1-yl)methanone], ≤ 50 nM.
With `O=C(NS(=O)(=O)c1ccc(N2CC[C@H](O)C2)nc1)c1cnc2ccc(N3CCC[C@@H]3c3cc(F)ccc3F)cn12` [Example 33, 6-((R)-2-(2,5-difluorophenyl)pyrrolidin-1-yl)-N-((6-((S)-3-hydroxypyrrolidin-1-yl)pyridin-3-yl)sulfonyl)imidazo[1,2-a]pyridine-3-carboxamide], under setting [1], the IC50 lay in the range of 100 to 500 nM.
On the same count and under the same terms, as for `CN(CCF)S(=O)(=O)NC(=O)c1cnc2ccc(N3CCC[C@@H]3c3cc(F)ccc3F)cn12` [Example 38, (R)-6-(2-(2,5-difluorophenyl)pyrrolidin-1-yl)-N-(N-(2-fluoroethyl)-N-methylsulfamoyl)imidazo[1,2-a]pyridine-3-carboxamide], the figure is ≤ 50 nM.
Still for that read-out and setting: to `CCCN(C)S(=O)(=O)NC(=O)c1cnc2ccc(N3C[C@@H](F)C[C@@H]3c3cc(F)ccc3O[C@@H]3CCOC3)cn12` [Example 101, 6-((2R,4S)-4-fluoro-2-(5-fluoro-2-(((R)-tetrahydrofuran-3-yl)oxy)phenyl)pyrrolidin-1-yl)-N—(N-methyl-N-propylsulfamoyl)imidazo[1,2-a]pyridine-3-carboxamide] belongs ≤ 50 nM; to `CCOC(=O)CNC(=O)c1cnc2ccc(N3CCC[C@H]3c3cc(F)ccc3F)cn12` (single isomer, unassigned) [Example 18, Ethyl 2-(6-(2-(2,5-difluorophenyl)pyrrolidin-1-yl)imidazo[1,2-a]pyridine-3-carboxamido)acetate], 100 to 500 nM; to `CN(CC(C)(C)F)S(=O)(=O)NC(=O)c1cnc2ccc(N3C[C@@H](F)C[C@@H]3c3cc(F)ccc3OC3CCOCC3)cn12` [Example 110, 6-((2R,4S)-4-fluoro-2-(5-fluoro-2-((tetrahydro-2H-pyran-4-yl)oxy)phenyl)pyrrolidin-1-yl)-N—(N-(2-fluoro-2-methylpropyl)-N-methylsulfamoyl)imidazo[1,2-a]pyridine-3-carboxamide], ≤ 50 nM.
For the compound `CN(c1nccs1)S(=O)(=O)NC(=O)c1cnc2ccc(N3C[C@@H](F)C[C@@H]3c3cc(F)ccc3O[C@@H]3CCOC3)cn12` [Example 77, 6-((2R,4S)-4-fluoro-2-(5-fluoro-2-(((R)-tetrahydrofuran-3-yl)oxy)phenyl)pyrrolidin-1-yl)-N—(N-methyl-N-(thiazol-2-yl)sulfamoyl)imidazo[1,2-a]pyridine-3-carboxamide], the half-maximal inhibitory concentration (IC50) under setting [1] is ≤ 50 nM.
